In ChEMBL document CHEMBL1154180, “Pyrazole-based arylalkyne cathepsin S inhibitors. Part II: optimization of cellular potency” (Bioorg Med Chem Lett, 2009) one finds IC50 data, which are given here for 24 compounds.

The target of assay [1] is T1, Cathepsin S (Homo sapiens, UniProt P25774). Nature of the assay: Inhibition of cathepsin S in human JY cells assessed as invariant chain li degradation by Western blotting. The class given is cell-based.
Assay [2] concerns the target T1, Cathepsin S. Nature of the assay: Inhibition of human recombinant cathepsin S expressed in baculovirus by FRET assay.

T1 sequence (P25774 whole entry): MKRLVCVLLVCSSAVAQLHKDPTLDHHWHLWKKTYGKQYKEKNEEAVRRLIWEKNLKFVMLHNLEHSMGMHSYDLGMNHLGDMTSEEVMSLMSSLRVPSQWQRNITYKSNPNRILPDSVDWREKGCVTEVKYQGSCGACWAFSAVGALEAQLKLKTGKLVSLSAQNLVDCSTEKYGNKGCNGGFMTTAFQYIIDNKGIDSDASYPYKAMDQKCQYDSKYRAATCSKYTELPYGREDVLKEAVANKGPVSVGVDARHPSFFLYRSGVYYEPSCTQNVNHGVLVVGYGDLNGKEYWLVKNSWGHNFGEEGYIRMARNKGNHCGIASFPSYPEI

`CS(=O)(=O)N1CCc2c(c(-c3ccc(Cl)c(C#Cc4ccc(CNS(=O)(=O)c5ccccc5)cc4)c3)nn2CCCN2CCOCC2)C1`: the half-inhibitory concentration (IC50) in assay [1] is over 10 µM; in assay [2] it was 160 nM. As to `CC(=O)N1CCC(C2CCN(C[C@H](O)Cn3nc(-c4ccc(Cl)c(C#Cc5ccc(Cl)cc5)c4)c4c3CCN(S(C)(=O)=O)C4)CC2)CC1`, in assay [1], the 50% inhibitory concentration (IC50) was 10 µM. Still for that read-out and setting: for `CS(=O)(=O)N1CCc2c(c(-c3ccc(Cl)c(C#Cc4ccc(Cl)cc4)c3)nn2CC(O)CN2CCCCC2)C1` (centres undefined) the value was over 10 µM. Regarding `COC(=O)[C@H](NCc1ccc(C#Cc2cc(-c3nn(CCCN4CCOCC4)c4c3CN(S(C)(=O)=O)CC4)ccc2Cl)cc1)c1ccccc1`, the IC50 in assay [1] was over 10 µM; in assay [2], 100 nM.

For the compound `CS(=O)(=O)N1CCc2c(c(-c3ccc(Cl)c(C#Cc4ccc(CNCCc5ccccc5)cc4)c3)nn2CCCN2CCOCC2)C1`, the IC50 in assay [1] is 5.7 µM. Regarding `CNCc1ccc(C#Cc2cc(-c3nn(CCCN4CCOCC4)c4c3CN(S(C)(=O)=O)CC4)ccc2Cl)cc1`, the IC50 was over 10 µM in assay [1] and 1300 nM in assay [2]. Turning to `COC(=O)C1CCN(CC(O)Cn2nc(-c3ccc(Cl)c(C#Cc4ccc(Cl)cc4)c3)c3c2CCN(S(C)(=O)=O)C3)CC1` (centres undefined), the IC50 in assay [1] was over 10 µM.

As to `COC(=O)[C@@H](NCc1ccc(C#Cc2cc(-c3nn(CCCN4CCOCC4)c4c3CN(S(C)(=O)=O)CC4)ccc2Cl)cc1)c1ccccc1`, the IC50 in assay [1] is over 10 µM.

For the compound `COc1ccc(CNCc2ccc(C#Cc3cc(-c4nn(CCCN5CCOCC5)c5c4CN(S(C)(=O)=O)CC5)ccc3Cl)cc2)cc1`, in assay [1], the IC50 came out at 0.82 µM. As for `CS(=O)(=O)N1CCc2c(c(-c3ccc(Cl)c(C#Cc4ccc(CNCc5ccc(Cl)cc5)cc4)c3)nn2CCCN2CCOCC2)C1`, the values for the half-inhibitory concentration (IC50) in assay [1] and in assay [2] were 1.5 µM and 140 nM, respectively.

On to `CS(=O)(=O)N1CCc2c(c(-c3ccc(Cl)c(C#Cc4ccc(CNC(=O)c5ccccc5)cc4)c3)nn2CCCN2CCOCC2)C1`, for which the half-maximal inhibitory concentration (IC50) in assay [1] is over 10 µM. Same read-out and setting: for `CN1CCC(C2CCN(C[C@H](O)Cn3nc(-c4ccc(Cl)c(C#Cc5ccc(Cl)cc5)c4)c4c3CCN(S(C)(=O)=O)C4)CC2)CC1` the value was 0.72 µM. In the case of `CS(=O)(=O)N1CCc2c(c(-c3ccc(Cl)c(C#Cc4ccc(CNCc5ccccc5)cc4)c3)nn2CCCN2CCOCC2)C1`, the IC50 in assay [1] worked out at 4.2 µM; in assay [2] it was 420 nM. For the compound `CS(=O)(=O)N1CCc2c(c(-c3ccc(Cl)c(C#Cc4ccc(CNCc5ccc(Cl)c(Cl)c5)cc4)c3)nn2CCCN2CCOCC2)C1`, in assay [1], the IC50 was determined as 1.8 µM.

Take `CS(=O)(=O)N1CCc2c(c(-c3ccc(Cl)c(C#Cc4ccc(CN)cc4)c3)nn2CCCN2CCOCC2)C1`: the figures for the concentration for half-maximal inhibition (IC50) in assay [1] and in assay [2] were 10 µM and 490 nM, respectively.

Take `CS(=O)(=O)N1CCc2c(c(-c3ccc(Cl)c(C#Cc4ccc(Cl)cc4)c3)nn2C[C@@H](O)CN2CCC(C3CCNCC3)CC2)C1`: the IC50 in assay [1] worked out at 0.2 µM.

`Cc1ccc(CNCc2ccc(C#Cc3cc(-c4nn(CCCN5CCOCC5)c5c4CN(S(C)(=O)=O)CC5)ccc3Cl)cc2)cc1`: the half-inhibitory concentration (IC50) in assay [1] was found to be 1.1 µM.

In the case of `CC(C)(C)OC(=O)N1CCN(CC(O)Cn2nc(-c3ccc(Cl)c(C#Cc4ccc(Cl)cc4)c3)c3c2CCN(S(C)(=O)=O)C3)CC1` (centres undefined), the half-maximal inhibitory concentration (IC50) is over 10 µM in assay [1] and 150 nM in assay [2]. Taken in the same sequence, the figures for `CS(=O)(=O)N1CCc2c(c(-c3ccc(Cl)c(C#Cc4ccc(Cl)cc4)c3)nn2CC(O)CN2CCOCC2)C1` (centres undefined) were over 10 µM and 140 nM. `CC(C)(C)OC(=O)N1CCC(C2CCN(C[C@H](O)Cn3nc(-c4ccc(Cl)c(C#Cc5ccc(Cl)cc5)c4)c4c3CCN(S(C)(=O)=O)C4)CC2)CC1`: the IC50 in assay [1] is over 10 µM. Same read-out and setting: for `CS(=O)(=O)N1CCc2c(c(-c3ccc(Cl)c(C#Cc4ccc(Cl)cc4)c3)nn2CC(O)CN2CCC(C(N)=O)CC2)C1` (centres undefined) the value was over 10 µM; for `CS(=O)(=O)N1CCc2c(c(-c3ccc(Cl)c(C#Cc4ccc(CN[C@@H](CO)c5ccccc5)cc4)c3)nn2CCCN2CCOCC2)C1`, 1.7 µM. For the compound `CN(Cc1ccccc1)Cc1ccc(C#Cc2cc(-c3nn(CCCN4CCOCC4)c4c3CN(S(C)(=O)=O)CC4)ccc2Cl)cc1`, the IC50 in assay [1] is over 10 µM; in assay [2], 600 nM. Take `CS(=O)(=O)N1CCc2c(c(-c3ccc(Cl)c(C#Cc4ccc(Cl)cc4)c3)nn2CC(O)CN2CCNCC2)C1` (centres undefined): the IC50 is over 10 µM in assay [1] and 380 nM in assay [2].
